# Results published in patent publication US20170183318A1, “AMIDE COMPOUNDS, METHODS FOR PREPARATION, AND USE THEREOF AS AGENTS FOR THE TREATMENT AND PREVENTION OF DISEASES CAUSED BY RNA- AND/OR DNA-CONTAINING VIRUSES, AND CONCOMITANT DISEASES” (OBSCHESTVO S OGRANICHENNOI OTVETSTVENNOSTIYU …, priority 2014, published 2017).
# Like-named read-outs stand apart in the source and are kept apart here. Starred links: 1 amine or outer side, 2 acyl side, 3 side chain; linkers in the order of their positions; H or OH if unused. Residues, ends and D or L forms follow the SMILES beside them. Glutaryl = O=C(CCCC(=O)[*:2])[*:1]
# How the values were obtained:
# [1] = Rat model of nasopharyngitis induced by formalin (nasal mucosa changes, cell elements in nasal lavage); type: in vivo; settings: Wistar rats, 18 mg/kg for 3 days; for Mucous membrane of nasal passages: Without changes (number of animals): number of animals out of n = 10, control 0 of 20; for Mucous membrane of nasal passages: Discharge mucus from the nasal passages (number of animals): number of animals out of n = 10, control 20 of 20
# Procedure: Nasopharyngitis was induced by intranasal administration of formalin to each nasal passage of rats.
# The administration of formalin to the nasal passages of rats leads to the dissemination of inflammation to adjacent tissues, resulting in a clinical pattern similar to the symptoms of nasopharyngitis in a human.
# After an acclimatization period, the following groups were formed: • intact animals administered intragastrically a physiological solution in an amount of 0.2 ml, without induction of nasopharyngitis; • a control group consisted of animals administered intragastrically a physiological solution in an amount of 0.2 ml for 3 days after induction of nasopharyngitis; and • animals administered the studied compounds at a dose of 18 mg/kg for 3 days after induction of nasopharyngitis.
# Clinical observation of each animal was performed every day at least twice daily.
# The caused pathology was characterized by hyperplasia, increased number of caliciform cells, pronounced infiltration of mononuclear cells and leucocytes, and mucus hyperproduction by submucosal glands.
# After euthanasia, the inflammation pattern in the nasal passages and throat was studied in each group of animals. The nasal passages were washed with 5 mL of physiological solution and the score of cell elements were counted in 1 μL.
# [2] = tested on: herpes simplex virus belonging to antigenic type 2; test: Murine model of experimental herpetic meningoencephalitis (mortality); type: in vivo, white outbred mice; settings: Mus musculus, po, 336 h
# Procedure: In the study, herpes simplex virus belonging to antigenic type 2 was used. White outbred mice weighing 7-8 g were infected i/c (intracerebrally) in a volume of 0.05 ml/mouse comprising a dose of 10LD50. The infectious dose of the virus that caused 100% mortality in mice was 10LD50. Each experimental group comprised 20 mice. Intact animals served as control and were hold in a separate room under the same conditions as the experimental animals. The antiviral activity of the compounds of general formula I was studied by oral administration of the compounds to infected mice once daily at a dose of 30 mg/kg/mouse 24, 48, 72, 96, and 120 hours after infection of the animals with the virus. The mice of the control group were administered placebo (0.2 mL of physiological solution) under the same conditions. The animals were monitored for 14 days after infection by registration the mouse death in the groups.
# Each animal was subjected to once-daily observation. The observation included the assessment of general behavior and body condition of animals. The animals were handled according to the International Standards.
# The activity of the compounds was evaluated by comparing mortality rates in the groups of animals administered a preparation and placebo.
# [3] = tested on: Coxsackie A2 virus (strain HCXV A2); test: Antiviral activity against Coxsackie virus in vivo (mortality and life expectancy of infected mice)
# Procedure: In the study a trypsin-dependent strain HCXV A2 was used, previously adapted and causing death in mice from Coxsackie virus infection.
# The experiment was carried out in white mice weighing 6 to 7 g. The animals were infected intramuscularly with a dose of 0.1 mL/mouse. The used infectious dose causing mortality in mice was 10LD50.
# The ability of compounds to provide a therapeutic effect was determined by the mortality rate of HCXV A2 virus-infected mice in the experimental group relative to the group of untreated animals.
# The studied compounds and placebo were administered orally according to the treatment regimen. Normal saline solution was administered to mice as placebo. Intact animals served as a negative control and were hold in a separate room under the same conditions as the experimental animals.
# For the experiment, groups were formed with 14-15 animals each. Compounds were administered at a dose of 30 mg/kg of body weight. The studied compounds were administered orally once daily for 7 days (first administration was made 24 hours after infection). The animals were monitored for 15 days during which the animals were weighed and the mortality rate was registered every day.
# [4] = tested on: human respiratory syncytial virus (strain A2); test: Antiviral activity against RS virus in a murine model of suppressed immune system (lung edema); type: in vivo; settings: Balb/c mice, cyclophosphan-suppressed, RS-virus pneumonia; 30 mg/kg once daily for 5 days; M ± SD, n = 5; scores from possible 4
# Procedure: Antiviral activity of the chemical compounds against human respiratory syncytial virus (strain A2, an infectious titer of 5×10^6 TCID50/mL) was assessed in a Balb/c murine model of viral pneumonia. The virus was inoculated to animals intranasally in a volume of 50 μL under brief ether anesthesia. The immune response in animals to RS virus was suppressed by intraperitoneal administration of cyclophosphan at a dose of 100 mg/kg 5 days before infection. The studied compounds were administered according to the treatment regimen once daily at a dose of 30 mg/kg for 5 days, starting 24 hours after infection. The activity of the compounds was determined by a reduction in edema of the lung infected with respiratory syncytial virus, compared to the control, on day 5 after infection.
# human virus hRSV = test: Antiviral activity against mouse-adapted RS virus (body weight; viral titer in lungs titrated in Hep-2 cells); type: in vivo, mice; settings: for hRSV in the lungs of mice, Day 5, lg / hRSV in the lungs of mice, Day 7, lg: 10% lung suspension titrated in Hep-2 cells (TCID); for hRSV in the lungs of mice, Day 5, lg / Body weight of the mice on day 5 after infection with hRSV (M ± SD) / hRSV in the lungs of mice, Day 7, lg / Body weight of the mice on day 7 after infection with hRSV (M ± SD): compounds 30 mg/kg, Ribavirin 40 mg/kg; for Body weight of the mice on day 5 after infection with hRSV (M ± SD) / Body weight of the mice on day 7 after infection with hRSV (M ± SD): orally once daily for 5 days, n = 6; for log reduction at 30 mg/kg: human respiratory syncytial virus, HEp-2, po
# Procedure: Antiviral effectiveness of the chemical compounds against RSV in an experimental murine model in vivo was determined for human virus hRSV that was previously adapted to the growth in mouse lungs. The animals were infected with the virus at a dose of 0.5 log TCID50 intranasally under brief ether anesthesia in a volume of 0.05 ml/mouse. The studied compounds were administered orally once daily for 5 days according to the treatment regimen at a dose of 30 mg/kg. The first administration was made 24 hours after infection. Normal saline solution was administered to mice as placebo. Intact animals served as a negative control and were hold in a separate room under the same conditions as the experimental animals. Each experimental group comprised 12 animals.
# The antiviral activity of the studied compounds was determined by the efficiency in the prevention of weight loss and by suppression of the reproduction of hRSV in the mouse lungs by measuring a viral titer in the experimental groups relative to the control on days 5 and 7 after infection.
# In addition, the therapeutic action of the compounds of general formula I was determined by their ability to suppress the reproduction of hRSV in the mouse lungs on days 5 and 7 after infection. The viral titer was determined by the titration of a 10% lung suspension in Hep-2 cell culture. The result was registered 2 days after the incubation at 37° C. by TCID.
# [5] = 120 h, read-out: Suppression of the reproduction of hRSV in the lungs of mice, Day 5, Δlg
# [6] = 168 h, read-out: Suppression of the reproduction of hRSV in the lungs of mice, Day 7, Δlg
Compound,Mucous membrane of nasal passages: Without changes (number of animals) [1],Mucous membrane of nasal passages: Discharge mucus from the nasal passages (number of animals) [1],mortality at 30 mg/kg [2],"inhibition in vivo at 30 mg/kg ([3]; Mus musculus, po, 168 h, 30 mg/kg orally once daily for 7 days, vs virus control, read-out: Protective index (%))","mortality at 30 mg/kg ([3]; Mus musculus, po, 360 h, read-out: Total mortality, %)","Average life expectancy (days), Compared with control ([3]; difference vs virus control, 30 mg/kg orally once daily for 7 days)","Average life expectancy (days), Relative ([3]; mice infected with 10LD50 HCXV A2, 30 mg/kg orally once daily for 7 days)","Degree of lung edema on day 5 after infection, score [4]","hRSV in the lungs of mice, Day 5, lg (human virus hRSV)",Body weight of the mice on day 5 after infection with hRSV (M ± SD) (human virus hRSV),"hRSV in the lungs of mice, Day 7, lg (human virus hRSV)",Body weight of the mice on day 7 after infection with hRSV (M ± SD) (human virus hRSV),log reduction at 30 mg/kg (human virus hRSV; [5]),log reduction at 30 mg/kg (human virus hRSV; [6])
CC(NC(=O)C(Cc1cnc[nH]1)NC(=O)CCCC(=O)O)C(N)=O (stereo not drawn) [Compound 92] (Glutaryl-His-Ala-NH2; configuration not given here),6,4,25%,–,–,–,–,–,–,–,–,–,–,–
O=C(O)CCCC(=O)NCCc1cn[nH]n1 [Compound 126],4,6,40%,–,–,–,–,–,–,–,–,–,–,–
O=C(O)CCCC(=O)NCCc1cnccn1 [Compound 131],5,5,45%,–,–,–,–,–,–,–,–,–,–,–
CC(C)(CCC(=O)NCCc1cnc[nH]1)C(=O)O [Compound 44],4,6,40%,55%,28.6%,+20.1 days,32.3 days,–,–,–,–,–,–,–
NCCCC(=O)NCCCc1cccs1 [Compound 100],3,7,30%,–,–,–,–,–,–,–,–,–,–,–
O=C(O)CCCC(=O)NCCc1cc[nH]n1 [Compound 15],7,3,30%,–,–,–,–,–,–,–,–,–,–,–
O=C(O)CCCC(=O)NCCC1CNC=N1 (stereo not shown) [Compound 4],–,–,–,–,–,–,–,1.95 ± 0.31 score,2.58 ± 0.51 lg,16.77 ± 0.20,1.38 ± 0.24 lg,17.08 ± 0.32,2.02 ± 0.51,2.58 ± 0.53
O=C(O)CCCC(=O)NCCc1cocn1 [Compound 124],7,3,40%,–,–,–,–,–,2.46 ± 0.22 lg,16.43 ± 0.26,0.83 ± 0.37 lg,16.37 ± 0.43,2.14 ± 0.22,2.97 ± 0.37
O=C(O)CCCC(=O)NCCC1CNCCO1 (stereo not shown) [Compound 9],–,–,–,–,–,–,–,1.00 ± 0.17 score,–,15.75 ± 0.33,–,16.18 ± 0.29,–,–
O=C(O)CCCC(=O)NCCc1cnco1 [Compound 123],–,–,–,–,–,–,–,1.30 ± 0.17 score,2.50 ± 0.43 lg,15.87 ± 0.20,1.33 ± 0.19 lg,17.55 ± 0.53,2.1 ± 0.43,2.62 ± 0.5
O=C(O)CCCC(=O)NCCc1cc[nH]c1 [Compound 120],–,–,–,–,–,–,–,1.05 ± 0.14 score,3.04 ± 0.47 lg,16.12 ± 0.27,1.50 ± 0.25 lg,17.22 ± 0.20,1.56 ± 0.47,2.05 ± 0.25
O=C(O)CCCC(=O)NCCC1CCNCC1 [Compound 7],6,4,20%,–,–,–,–,–,–,17.17 ± 0.26,–,18.53 ± 0.55,–,–
O=C(O)CCCC(=O)NCCc1cscn1 [Compound 121],–,–,–,–,–,–,–,1.30 ± 0.60 score,3.08 ± 0.47 lg,16.35 ± 0.20,1.50 ± 0.14 lg,17.38 ± 0.29,1.52 ± 0.47,2.09 ± 0.22
